In US20140315797A1, “Novel N-Terminally Modified Insulin Derivatives” (priority 2010, published 2014):
Starred links: 1 amine or outer side, 2 acyl side, 3 side chain; linkers in the order of their positions; H or OH if unused. Positions of bridges follow the written chain, without caps; N, C: chain ends. Groups on a side chain read outwards from the residue. Chains are numbered I, II in the order given. No end group written: not given here. *: point of attachment. Phe(Nα-CONH2) = NC(=O)N[C@@H](Cc1ccccc1)C(=O)*; C20 diacid = O=C(O)CCCCCCCCCCCCCCCCCCC(=O)*; C18 diacid = O=C(O)CCCCCCCCCCCCCCCCC(=O)*; C16 diacid = O=C(O)CCCCCCCCCCCCCCC(=O)*; NMe2Phe = CN(C)[C@@H](Cc1ccccc1)C(=O)*; γGlu = O=C(O)[C@H](CCC(=O)[*:2])N[*:1]; X1 = CCN(CC)[C@@H](Cc1ccccc1)C(=O)*; Hydantoyl = NC(=O)NCC(=O)*; AEEA = NCCOCCOCC(=O)O; Me2Gly = CN(C)CC(=O)*; X2 = CCN(CC)CC(=O)*

Key:
[1] = Chemical stability of insulin analogues formulated in lipid formulations (UPLC purity, SEC HMWP); format: physicochemical; conditions: lipid formulation, 25° C.
Method: Chemical stability of insulin analogues formulated in lipid formulations was assessed according to the protocol described here.
Composition of the formulation: […]
Insulin to be tested (75 μM)
The insulin to be tested (lyophilised from pH 7.5) is dissolved in propylenglycol in the dark for 16 hours. Diglycerol caprylate is added ad the mixture is stirred. Tween 20 is added and the mixture is stirred for 5 minutes. The mixture is gently agitated until it is homogeneous.
Extraction-mix: 1-butanol+0.1% (w/w) Tween80, 0.1M Na2HPO4/NaH2PO4 pH 7.0 • 1. The formulations are allowed to reach room temperature. • 2. To each Eppendorf tube 20 μl of the formulations are added. • 3. Add 490 μl 1-butanol followed by addition of 990 μl of the phosphate buffer. Vortex and incubate at RT for 30 min. • 4. Vortex again and centrifuge at RT at 14000 rpm for 20 min. Analyse the bottom aqueous phase for purity and HMWP formation.
Alternatively another extraction method can be used: • 1. The formulations are allowed to reach room temperature. • 2. To each Eppendorf tube 50 μl of the formulations are added. • 3. Add 950 μl of extraction buffer. Vortex well. Immediately after, load 800 μl (2×400 μl) for purification on the spin column. See spin protocol below. Ion Exchange on Q Spin Columns from Sartorius
(In the following all spin steps are for 5 min at 2000×g.) • 1. Apply 400 μl equilibration buffer to each spin column, and spin. Discard the flow-through. • 2. Apply 2×400 μl of each extracted sample. Spin the column between each application. Discard the flow-through. • 3. Apply 400 μl washing buffer to wash each spin column, and spin. Discard the wash. • 4. Apply 400 μl elution buffer to each spin column, and spin. Analyse the elution for purity and HMWP formation
Column: Waters BEH Shield RP18 UPLC column (2.1×100 mm, 1.7 μm)
Buffer A: 0.09M di-ammonium hydrogen phosphate pH 3.0, 10% (v/v) acetonitrile
Buffer B: 90% acetonitrile.
Column: Waters Insulin HMWP SEC column
Buffer: 500 mM NaCl, 10 mM NaH2PO4, 5 mM H3PO4, 50% (v/v) 2-propanol

[2] = system: duodenum lumen enzymes; conditions: pH 7.4
Method: Degradation of insulin analogs using duodenum lumen enzymes (prepared by filtration of duodenum lumen content) from SPD rats. The assay is performed by a robot in a 96 well plate (2 ml) with 16 wells available for insulin analogs and standards. Insulin analogs ˜15 μM are incubated with duodenum enzymes in 100 mM Hepes, pH=7.4 at 37° C., samples are taken after 1, 15, 30, 60, 120 and 240 min and reaction quenched by addition of TFA. Intact insulin analogs at each point are determined by RP-HPLC. Degradation half time is determined by exponential fitting of the data and normalized to half time determined for the reference insulins, A14E, B25H, desB30 human insulin or human insulin in each assay. The amount of enzymes added for the degradation is such that the half time for degradation of the reference insulin is between 60 min and 180 min.

[3] = biological target: T1, human insulin receptor (IR-A) (Homo sapiens, UniProt P06213); test: Insulin receptor affinity, SPA antibody capture assay, 0% HSA; format: binding; conditions: relative to affinity of human insulin
T1 sequence (P06213 28-746 isoform P06213-2 limits assumed): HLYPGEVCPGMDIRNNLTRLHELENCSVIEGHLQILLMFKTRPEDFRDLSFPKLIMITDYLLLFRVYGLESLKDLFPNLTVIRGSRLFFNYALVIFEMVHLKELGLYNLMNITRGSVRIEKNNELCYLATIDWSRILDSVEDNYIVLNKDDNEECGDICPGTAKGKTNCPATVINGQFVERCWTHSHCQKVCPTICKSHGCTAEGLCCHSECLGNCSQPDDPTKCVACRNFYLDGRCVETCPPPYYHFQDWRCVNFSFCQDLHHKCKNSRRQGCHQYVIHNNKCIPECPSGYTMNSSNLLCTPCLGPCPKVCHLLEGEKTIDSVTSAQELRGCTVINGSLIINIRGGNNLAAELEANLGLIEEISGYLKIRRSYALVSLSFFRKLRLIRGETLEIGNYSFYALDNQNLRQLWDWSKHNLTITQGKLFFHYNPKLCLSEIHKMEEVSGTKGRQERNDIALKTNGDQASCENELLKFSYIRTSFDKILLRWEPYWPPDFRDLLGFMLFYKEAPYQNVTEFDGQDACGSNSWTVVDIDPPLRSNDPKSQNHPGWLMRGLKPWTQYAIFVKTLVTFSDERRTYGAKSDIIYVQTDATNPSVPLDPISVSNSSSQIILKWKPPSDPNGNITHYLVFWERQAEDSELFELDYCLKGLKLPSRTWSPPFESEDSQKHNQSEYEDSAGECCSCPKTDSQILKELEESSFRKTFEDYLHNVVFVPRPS
T1 sequence (P06213 763-1382 partner limits assumed): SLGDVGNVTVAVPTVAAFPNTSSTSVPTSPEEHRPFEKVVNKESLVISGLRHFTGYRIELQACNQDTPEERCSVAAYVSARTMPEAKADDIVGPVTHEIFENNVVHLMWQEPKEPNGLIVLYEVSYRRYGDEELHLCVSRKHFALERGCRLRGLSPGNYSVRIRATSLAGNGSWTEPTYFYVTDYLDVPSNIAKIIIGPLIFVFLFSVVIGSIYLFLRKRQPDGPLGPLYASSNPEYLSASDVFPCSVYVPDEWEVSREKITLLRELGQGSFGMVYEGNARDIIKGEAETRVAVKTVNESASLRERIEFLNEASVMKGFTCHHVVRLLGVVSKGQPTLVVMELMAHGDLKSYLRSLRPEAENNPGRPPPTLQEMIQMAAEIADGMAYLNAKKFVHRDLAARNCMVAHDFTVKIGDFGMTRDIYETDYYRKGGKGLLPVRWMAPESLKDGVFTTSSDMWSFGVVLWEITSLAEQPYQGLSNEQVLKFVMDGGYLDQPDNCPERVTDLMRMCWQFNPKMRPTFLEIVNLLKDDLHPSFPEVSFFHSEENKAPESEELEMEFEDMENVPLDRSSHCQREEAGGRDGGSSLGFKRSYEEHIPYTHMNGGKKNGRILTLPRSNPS
Method: (§1) The affinity of the acylated insulin analogues of this invention for the human insulin receptor is determined by a SPA assay (Scintillation Proximity Assay) microtiterplate antibody capture assay. SPA-PVT antibody-binding beads, anti-mouse reagent (Amersham Biosciences, Cat No. PRNQ0017) are mixed with 25 ml of binding buffer (100 mM HEPES pH 7.8; 100 mM sodium chloride, 10 mM MgSO4, 0.025% Tween-20). Reagent mix for a single Packard Optiplate (Packard No. 6005190) is composed of 2.4 μl of a 1:5000 diluted purified recombinant human insulin receptor (either with or without exon 11), an amount of a stock solution of A14Tyr[^125I]-human insulin corresponding to 5000 cpm per 100 μl of reagent mix, 12 μl of a 1:1000 dilution of F12 antibody, 3 ml of SPA-beads and binding buffer to a total of 12 ml. A total of 100 μl reagent mix is then added to each well in the Packard Optiplate and a dilution series of the insulin derivative is made in the Optiplate from appropriate samples. The samples are then incubated for 16 hours while gently shaken. The phases are the then separated by centrifugation for 1 min and the plates counted in a Topcounter. The binding data were fitted using the nonlinear regression algorithm in the GraphPad Prism 2.01 (GraphPad Software, San Diego, Calif.) and affinities are expressed relative (in percentage (%)) to the affinity of human insulin.

[4] = biological target: T1, human insulin receptor (IR-A); conditions: relative to affinity of human insulin; […] HSA in binding buffer
Method: as §1
A related assay is also used wherein the binding buffer also contains 1.5% HSA in order to mimic physiological conditions

Substance | HMWP formed (%) 2 weeks [1] | Impurities formed (%) 2 weeks [1] | Duodenum degradation. Relative stability vs. A14E, B25H, desB30 human insulin [2] | Relative IR-A affinity (@ 0% HSA) (%) [3] | Relative IR-A affinity (@ […] HSA) (%)e [4] | HMWP formed (%) 4 weeks ([1]; 4 weeks) | Impurities formed (%) 4 weeks ([1]; 4 weeks)
A1(N^αDiglycolyl), A14E, B1(N^αdiglycolyl), B25H, desB27, B29K(N^εoctadecanedioyl-gGlu-2xOEG), desB30 human insulin [Example 59] | 0.1% | 2.4% | – | – | – | – | –
I: NMe2Phe-VNQHLCGSHLVEALHLVCGERGFHYTPK([AEEA-AEEA-γGlu-C20 diacid]) / II: Me2Gly-IVEQCCTSICSLEQLENYCN (disulfide I:6-II:6, I:18-II:19, II:5-II:10) [Example 7, A1(N^α,N^α-Dimethyl), A14E, B1(NP,N^α-dimethyl), B16H, B25H, B29K(N^εeicosanedioyl-gGlu-2xOEG), desB30 human insulin] | – | – | 0.4 | 0.5% | 0.03% | – | –
I: NMe2Phe-VNQHLCGSHLVEALYLVCGERGFHYPK([γGlu-C16 diacid]) / II: Me2Gly-IVEQCCTSICSLEQLENYCN (disulfide I:6-II:6, I:18-II:19, II:5-II:10) [Example 8, A1G(N^α,N^α-Dimethyl), A14E, B1F(N^α,N^α-dimethyl), B25H, desB27, B29K(N^εhexadecanedioyl-gGlu), desB30 human insulin] | – | – | 6.8 | 2.7% | 0.18% | – | –
I: NMe2Phe-VNQHLCGSHLVEALYLVCGERGFHYPK([γGlu-C18 diacid]) / II: Me2Gly-IVEQCCTSICSLEQLENYCN (disulfide I:6-II:6, I:18-II:19, II:5-II:10) [Example 4, A1(N^α, N^α-Dimethyl), A14E, B1(N^α, N^α-dimethyl), B25H, desB27, B29K(N^εoctadecanedioyl-gGlu), desB30 human insulin] | – | – | 8.6 | 1.7% | 0.03% | – | –
I: X1-VNQHLCGSHLVEALYLVCGERGFHYTPK([AEEA-AEEA-γGlu-C18 diacid]) / II: X2-IVEQCCTSICSLEQLENYCN (disulfide I:6-II:6, I:18-II:19, II:5-II:10) [Example 2, A1(N^α,N^α-Diethyl), A14E, B1(N^α, N^α-diethyl), B25H, B29K(N^εOctadecanedioyl-gGlu-2xOEG), desB30 human insulin] | 0.0% | 1.7% | 0.8 | 1.7% | 0.05% | 0.1% | 3.2%
I: {Phe(Nα-CONH2)}-VNQHLCGSHLVEALHLVCGERGFFYPK([AEEA-AEEA-γGlu-C20 diacid]) / II: Hydantoyl-IVEQCCTSICSLEQLENYCN (disulfide I:6-II:6, I:18-II:19, II:5-II:10) [Example 30, A1G(N^αcarbamoyl), A14E, B1F(N^αcarbamoyl), B16H, desB27, B29K(N^εeicosanedioyl-gGlu-2xOEG), desB30 human insulin] | – | – | 4.9 | – | – | – | –
I: {Phe(Nα-CONH2)}-VNQHLCGSHLVEALYLVCGERGFFYPK([AEEA-AEEA-γGlu-C16 diacid]) / II: Hydantoyl-IVEQCCTSICSLEQLENYCN (disulfide I:6-II:6, I:18-II:19, II:5-II:10) [Example 20] | – | – | 1.8 | 4.7% | 0.48% | – | –
I: {Phe(Nα-CONH2)}-VNQHLCGSHLVEALYLVCGERGFFYPK([AEEA-AEEA-γGlu-C20 diacid]) / II: Hydantoyl-IVEQCCTSICSLEQLENYCN (disulfide I:6-II:6, I:18-II:19, II:5-II:10) [Example 29, A1G(N^αcarbamoyl), A14E, B1F(N^αcarbamoyl), desB27, B29K(N^εeicosanedioyl-gGlu-2xOEG), desB30 human insulin] | – | – | 3.0 | 2.6% | 0.20% | – | –
I: {Phe(Nα-CONH2)}-VNQHLCGSHLVEALYLVCGERGFFYPK([γGlu-C16 diacid]) / II: Hydantoyl-IVEQCCTSICSLEQLENYCN (disulfide I:6-II:6, I:18-II:19, II:5-II:10) [Example 19, A1G(N(alpha)carbamoyl), A14E, B1F(N(alpha)carbamoyl), desB27, B29K(N(eps)hexadecanedioyl-gGlu), desB30 human insulin] | – | – | 3.0 | 5.0% | 0.14% | – | –
I: {Phe(Nα-CONH2)}-VNQHLCGSHLVEALYLVCGERGFFYPK([γGlu-C18 diacid]) / II: Hydantoyl-IVEQCCTSICSLEQLENYCN (disulfide I:6-II:6, I:18-II:19, II:5-II:10) [Example 23, A1(N^αCarbamoyl), A14E, B1(N^αCarbamoyl), desB27, B29K(N^εoctadecanedioyl-gGlu), desB30 human insulin] | – | – | 6.6 | 2.7% | 0.04% | – | –
I: {Phe(Nα-CONH2)}-VNQHLCGSHLVEALYLVCGERGFFYPK([γGlu-C20 diacid]) / II: Hydantoyl-IVEQCCTSICSLEQLENYCN (disulfide I:6-II:6, I:18-II:19, II:5-II:10) [Example 21] | – | – | 6.2 | 1.3% | 0.07% | – | –
I: {Phe(Nα-CONH2)}-VNQHLCGSHLVEALYLVCGERGFHYPK([AEEA-AEEA-γGlu-C18 diacid]) / II: Hydantoyl-IVEQCCTSICSLEQLENYCN (disulfide I:6-II:6, I:18-II:19, II:5-II:10) [Example 18, A1(N^αCarbamoyl), A14E, B1(N^αCarbamoyl), B25H, desB27, B29K(N^εoctadecandioyl-gGlu-2xOEG), desB30 human insulin] | – | – | 5.6 | 0.4% | 0.04% | – | –
I: {Phe(Nα-CONH2)}-VNQHLCGSHLVEALYLVCGERGFHYTPK([γGlu-C16 diacid]) / II: Hydantoyl-IVEQCCTSICSLEQLENYCN (disulfide I:6-II:6, I:18-II:19, II:5-II:10) [Example 13, A1(N^αCarbamoyl), A14E, B1(N^αCarbamoyl), B25H, B29K(N^εhexadecanedioyl-gGlu), desB30 human insulin] | – | – | 1.5 | 0.3% | 0.02% | – | –
I: {Phe(Nα-CONH2)}-VNQHLCGSHLVEALYLVCGERGFHYTPK([γGlu-C20 diacid]) / II: Hydantoyl-IVEQCCTSICSLEQLENYCN (disulfide I:6-II:6, I:18-II:19, II:5-II:10) [Example 14, A1(N^αCarbamoyl), A14E, B1(N^αCarbamoyl), B25H, B29K(Feicosanedioyl-gGlu), desB30 human insulin] | – | – | 0.9 | 0.2% | 0.00% | – | –
